From patent publication US7674451B2, “Cosmetic or pharmaceutical composition comprising peptides, uses and treatment processes” (ISP Investments Inc., priority 2002, dated 2010)
Where a SMILES comes first, the peptide text is derived from it.

System: ERG 1-2 molecule
Test: Cell differentiation marker ERG 1-2 in HaCat keratinocytes, immunofluorescence
Assay type: cell-based
Settings: HaCat human keratinocytes, 24 hours

- quantity of ERG molecules present in the cells (intensity of fluorescence): increases
SMILES: N=C(N)NCCC[C@H](N)C(=O)NCC(=O)N[C@@H](CO)C(=O)O [Arg-Gly-Ser] (H-Arg-Gly-Ser-OH)
